pIC50: −log10 of the molar value.
Target: CDK2/Cyclin E1 (Homo sapiens (Human), UniProt P24941)
Test: CDK2/Cyclin E1 HTRF enzyme activity assay (Example A)
Assay type: biochemical
Settings: 1 mM ATP
Description: Assays were conducted in white 384-well polystyrene plates in a final reaction volume of 8 μL. […] HTRF signals were read after 1 hour at room temperature on a PHERAstar FS plate reader (BMG Labtech). Data was analyzed with IDBS XLFit and GraphPad Prism 5.0 software using a three or four parameter dose response curve to determine IC50 for each compound.

Row | SMILES | pIC50
1 | CN1CCN(c2ccc(-n3cnc(-c4nc(NC5CCN(S(C)(=O)=O)CC5)ncc4C(F)(F)F)c3)c(Cl)c2)CC1 [Example 148, 4-(1-(2-Chloro-4-(4-methylpiperazin-1-yl)phenyl)-1H-imidazol-4-yl)-N-(1-(methylsulfonyl)-piperidin-4-yl)-5-(trifluoromethyl)-pyrimidin-2-amine] | ≥ 7.30
2 | CCNC(=O)c1ccc(-n2cnc(-c3nc(NC4CCN(S(C)(=O)=O)CC4)ncc3C(F)(F)F)c2)c(C)n1 [Example 134, N-Ethyl-6-methyl-5-(4-(2-((1-(methyl-sulfonyl)piperidin-4-yl)amino)-5-(trifluoromethyl)-pyrimidin-4-yl)-1H-imidazol-1-yl)picolinamide] | ≥ 7.30
3 | CS(=O)(=O)N1CCC(Nc2ncc(C(F)(F)F)c(-c3cn(-c4cccc(F)c4Cl)cn3)n2)CC1 [Example 65, 4-(1-(2-Chloro-3-fluorophenyl)-1H-imidazol-4-yl)-N-(1-(methylsulfonyl)piperidin-4-yl)-5-(trifluoromethyl)pyrimidin-2-amine] | ≥ 7.30
4 | CS(=O)(=O)N1CCC(Nc2ncc(C(F)(F)F)c(-c3cn(-c4ccc(C#N)cc4CO)cn3)n2)CC1 [Example 235, 3-(Hydroxymethyl)-4-(4-(2-((1-(methylsulfonyl)piperidin-4-yl)amino)-5-(trifluoromethyl)pyrimidin-4-yl)-1H-imidazol-1-yl)benzonitrile] | ≥ 7.30
5 | CN(C)Cc1ccc(-n2cnc(-c3nc(N[C@H]4CCN(S(C)(=O)=O)C[C@H]4F)ncc3C(F)(F)F)c2)c(Cl)c1 [Example 183, 4-(1-(2-Chloro-4-((dimethylamino)methyl)phenyl)-1H-imidazol-4-yl)-N-((3R,4S)-3-fluoro-1-(methylsulfonyl)piperidin-4-yl)-5-(trifluoromethyl)pyrimidin-2-amine] | ≥ 7.30
6 | CS(=O)(=O)N1CCC(Nc2ncc(C(F)(F)F)c(-c3cn(-c4cccc(-c5ccnc(N)c5)c4Cl)cn3)n2)CC1 [Example 96, 4-(1-(3-(2-Aminopyridin-4-yl)-2-chlorophenyl)-1H-imidazol-4-yl)-N-(1-(methylsulfonyl)piperidin-4-yl)-5-(trifluoromethyl)pyrimidin-2-amine] | ≥ 7.30
7 | CS(=O)(=O)N1CCC(Nc2ncc(C(F)(F)F)c(-c3cn(-c4cccc(C#N)c4Cl)cn3)n2)CC1 [Example 58, 2-Chloro-3-(4-(2-((1-(methylsulfonyl)piperidin-4-yl)amino)-5-(trifluoromethyl)pyrimidin-4-yl)-1H-imidazol-1-yl)benzonitrile] | ≥ 7.30
8 | CS(=O)(=O)N1CCC(Nc2ncc(C(F)(F)F)c(-c3cn(-c4cccc(CN5CC(O)C5)c4Cl)cn3)n2)CC1 [Example 82, 1-(2-Chloro-3-(4-(2-((1-(methylsulfonyl)piperidin-4-yl)amino)-5-(trifluoromethyl)pyrimidin-4-yl)-1H-imidazol-1-yl)benzyl)azetidin-3-ol] | ≥ 7.30
9 | CS(=O)(=O)N1CCC(Nc2ncc(C(F)(F)F)c(-c3cn(CC(F)F)cn3)n2)CC1 [Example 21, 4-(1-(2,2-Difluoroethyl)-1H-imidazol-4-yl)-N-(1-(methylsulfonyl)piperidin-4-yl)-5-(trifluoromethyl)pyrimidin-2-amine] | ≥ 7.30
10 | Cn1cnc(-c2nc(NC3CCN(S(=O)(=O)c4cn(C)cn4)CC3)ncc2C(F)(F)F)c1 [Example 10, 4-(1-Methyl-1H-imidazol-4-yl)-N-(1-((1-methyl-1H-imidazol-4-yl)sulfonyl)piperidin-4-yl)-5-(trifluoromethyl)pyrimidin-2-amine] | ≥ 7.30
11 | Cn1cnc(-c2nc(NC3CCN(S(C)(=O)=O)CC3)ncc2C(F)(F)F)c1Br [Example 13, 4-(5-Bromo-1-methyl-1H-imidazol-4-yl)-N-(1-(methylsulfonyl)piperidin-4-yl)-5-(trifluoromethyl)pyrimidin-2-amine] | ≥ 7.30
12 | O=S(=O)(NC1CC1)N1CCC(Nc2ncc(C(F)(F)F)c(-c3cn(-c4ccc(CN5CCC5)cc4Cl)cn3)n2)CC1 [Example 230, 4-((4-(1-(4-(Azetidin-1-ylmethyl)-2-chlorophenyl)-1H-imidazol-4-yl)-5-(trifluoromethyl)pyrimidin-2-yl)amino)-N-cyclopropylpiperidine-1-sulfonamide] | ≥ 7.30
13 | Cn1cc(-c2ccc(-n3cnc(-c4nc(NC5CCN(S(C)(=O)=O)CC5)ncc4C(F)(F)F)c3)c(C(F)(F)F)n2)cn1 [Example 98, 4-(1-(6-(1-Methyl-1H-pyrazol-4-yl)-2-(trifluoromethyl)pyridin-3-yl)-1H-imidazol-4-yl)-N-(1-(methylsulfonyl)piperidin-4-yl)-5-(trifluoromethyl) pyrimidin-2-amine] | ≥ 7.30
14 | Cn1cnc(-c2nc(NC3CCN(S(C)(=O)=O)CC3)ncc2C(F)(F)F)c1C#N [Example 16, 1-Methyl-4-(2-((1-(methylsulfonyl)piperidin-4-yl)amino)-5-(trifluoromethyl)pyrimidin-4-yl)-1H-imidazole-5-carbonitrile] | ≥ 7.30
15 | O=S(=O)(C1CC1)N1CCC(Nc2ncc(C(F)(F)F)c(-c3cn(CC(F)F)cn3)n2)CC1 [Example 29, N-(1-(Cyclopropylsulfonyl)piperidin-4-yl)-4-(1-(2,2-difluoroethyl)-1H-imidazol-4-yl)-5-(trifluoromethyl)pyrimidin-2-amine] | ≥ 7.30
16 | Cc1nc(-c2nc(NC3CCN(S(C)(=O)=O)CC3)ncc2C(F)(F)F)cn1-c1ccc(-c2ccnn2C)cc1F [Example 129, 4-(1-(2-Fluoro-4-(1-methyl-1H-pyrazol-5-yl)phenyl)-2-methyl-1H-imidazol-4-yl)-N-(1-(methylsulfonyl)-piperidin-4-yl)-5-(trifluoromethyl)-pyrimidin-2-amine] | ≥ 7.30
17 | CNCc1cccc(-n2cnc(-c3nc(NC4CCN(S(C)(=O)=O)CC4)ncc3C(F)(F)F)c2)c1Cl [Example 80, 4-(1-(2-Chloro-3-((methylamino)methyl)phenyl)-1H-imidazol-4-yl)-N-(1-(methylsulfonyl)piperidin-4-yl)-5-(trifluoromethyl)pyrimidin-2-amine] | ≥ 7.30
18 | CNCc1ccc(-n2cnc(-c3nc(N[C@H]4CCN(S(C)(=O)=O)C[C@H]4C)ncc3C(F)(F)F)c2)c(Cl)c1 [Example 182, 4-(1-(2-Chloro-4-((methylamino)methyl)phenyl)-1H-imidazol-4-yl)-N-((3R,4S)-3-methyl-1-(methylsulfonyl)piperidin-4-yl)-5-(trifluoromethyl)pyrimidin-2-amine] | ≥ 7.30

Other lines, results leading:

Row | pIC50 | SMILES
19 | ≥ 7.30 | Cc1nc(-c2nc(N[C@H]3CCN(S(C)(=O)=O)C[C@H]3F)ncc2C(F)(F)F)cn1-c1ccnc(C#N)c1F [Example 310, 3-Fluoro-4-(4-(2-(((3R,4S)-3-fluoro-1-(methylsulfonyl)piperidin-4-yl)amino)-5-(trifluoromethyl)pyrimidin-4-yl)-2-methyl-1H-imidazol-1-yl)picolinonitrile]
20 | ≥ 7.30 | CCNCc1cc(F)c(-n2cnc(-c3nc(N[C@@H]4CCN(S(C)(=O)=O)C[C@H]4F)ncc3C(F)(F)F)c2)c(F)c1 [Example 390, 4-(1-(4-((Ethylamino)methyl)-2,6-difluorophenyl)-1H-imidazol-4-yl)-N-((3R,4R)-3-fluoro-1-(methylsulfonyl)piperidin-4-yl)-5-(trifluoromethyl)pyrimidin-2-amine]
21 | ≥ 7.30 | Cc1nc(-c2nc(NC3CCN(S(C)(=O)=O)CC3)ncc2C(F)(F)F)cn1-c1ccc(N2CC(C)(O)C2)cc1F [Example 456, 1-(3-Fluoro-4-(2-methyl-4-(2-((1-(methylsulfonyl)piperidin-4-yl)amino)-5-(trifluoromethyl)pyrimidin-4-yl)-1H-imidazol-1-yl)phenyl)-3-methylazetidin-3-ol]
22 | ≥ 7.30 | CNCc1ccc(-n2cnc(-c3nc(NC4CCN(S(C)(=O)=O)CC4)ncc3C(F)(F)F)c2)c(C(F)F)n1 [Example 245, 4-(1-(2-(Difluoromethyl)-6-((methylamino)methyl)pyridin-3-yl)-1H-imidazol-4-yl)-N-(1-(methylsulfonyl)piperidin-4-yl)-5-(trifluoromethyl)pyrimidin-2-amine]
23 | ≥ 7.30 | CS(=O)(=O)N1CCC(Nc2ncc(C(F)(F)F)c(-c3cn(-c4ccc(CN5CCOC5=O)cc4Cl)cn3)n2)CC1 [Example 441, 3-(3-Chloro-4-(4-(2-((1-(methylsulfonyl)piperidin-4-yl)amino)-5-(trifluoromethyl)pyrimidin-4-yl)-1H-imidazol-1-yl)benzyl)oxazolidin-2-one]
24 | ≥ 7.30 | C[C@@]1(O)CCN(CCc2cccc(-n3cnc(-c4nc(NC5CCN(S(C)(=O)=O)CC5)ncc4C(F)(F)F)c3)c2Cl)C1 [Example 374, (R)-1-(2-Chloro-3-(4-(2-((1-(methylsulfonyl)piperidin-4-yl)amino)-5-(trifluoromethyl)pyrimi-din-4-yl)-1H-imidazol-1-yl)phenethyl)-3-methylpyrrolidin-3-ol]
25 | ≥ 7.30 | CCNCc1cc(F)c(-n2cnc(-c3nc(N[C@@H]4CCN(S(C)(=O)=O)C[C@H]4F)ncc3C(F)(F)F)c2)c(Cl)c1 [Example 406, 4-(1-(2-Chloro-4-((ethylamino)methyl)-6-fluorophenyl)-1H-imidazol-4-yl)-N-((3R,4R)-3-fluoro-1-(methylsulfonyl)piperidin-4-yl)-5-(trifluoromethyl)pyrimidin-2-amine]
26 | ≥ 7.30 | CCNCc1ccc(-n2cnc(-c3nc(N[C@@H]4CCN(S(C)(=O)=O)C[C@H]4F)ncc3C(F)(F)F)c2)c(Cl)c1 [Example 401]
27 | ≥ 7.30 | CS(=O)(=O)N1CCC(Nc2ncc(C(F)(F)F)c(-c3cn(-c4cccc(CN5CC[C@@H](O)C5)c4Cl)cn3)n2)CC1 [Example 364, (R)-1-(2-Chloro-3-(4-(2-((1-(methyslulfonyl)piperidin-4-yl)amino)-5-(trifluoromethyl)pyrimi-din-4-yl)-1H-imidazol-1-yl)benzyl)pyrrolidin-3-ol]
28 | ≥ 7.30 | Cc1nc(-c2nc(NC3CCN(S(C)(=O)=O)CC3)ncc2C(F)(F)F)cn1-c1ccc(OCCN2CCCC2)cc1F [Example 424, 4-(1-(2-Fluoro-4-(2-(pyrrolidin-1-yl)ethoxy)phenyl)-2-methyl-1H-imidazol-4-yl)-N-(1-(mehtylsulfonyl)piperidin-4-yl)-5-(trifluoromethyl)pyrimidin-2-amine]
